From patent US20260315604A1, “OTUB1 Small-Molecule Binders and OTUB1-recruiting Deubiquitinase-targeting Chimeras (DUBTACs)” (ICAHN SCHOOL OF MEDICINE AT MOUNT SINAI, priority 2023, published 2026)

Each molecule was assayed against T1, Human OTUB1 wild-type (Homo sapiens, UniProt Q96FW1) (assay: Covalent modification of OTUB1 (adduct formation), mass spectrometry-based assay (OTUB1 covalent binders; selected CFTR or cGAS based bivalent compounds)). Details: covalent adduct formation with OTUB1 protein.
T1 construct: His tag (N); made in house; host or cells: E. coli BL21-CodonPlus (DE3)-RIPIL
T1 sequence (Q96FW1 whole entry): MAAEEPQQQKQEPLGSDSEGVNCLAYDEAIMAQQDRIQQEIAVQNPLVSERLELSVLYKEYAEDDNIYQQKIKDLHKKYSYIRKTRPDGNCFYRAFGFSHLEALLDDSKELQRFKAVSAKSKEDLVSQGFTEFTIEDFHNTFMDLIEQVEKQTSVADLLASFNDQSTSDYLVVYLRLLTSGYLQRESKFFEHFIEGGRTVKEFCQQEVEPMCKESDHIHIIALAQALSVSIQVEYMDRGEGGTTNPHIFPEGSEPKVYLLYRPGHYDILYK
Type: binding
Protocol: OTUB1 covalent binders were tested for their ability to form the covalent adduct with OTUB1 protein using a mass-spectrometry based assay.
Example 389. Assessment of the Covalent Modification of OTUB1 Protein by Selected OTUB1 Covalent Binders Using a Mass Spectrometry-Based Assay (FIG. 1)
OTUB1 protein (10 μM) was incubated with selecting compounds (2500 μM) at RT for 1 h. The adduct was qualified by mass spectrometry-based assays.
Example 398. Assessment of the Covalent Modification of OTUB1 Protein by Selected CFTR Based Bivalent Compounds Using Mass Spectrometry-Based Assay (FIG. 10)
OTUB1 protein (10 μM) was incubated with selecting bivalent compounds (2500 μM) at RT for 1 h. The adduct was qualified by mass spectrometry-based assays.
Human OTUB1 wild-type (NM_017670.3) and C23S mutation genes were optimized based on the codon preference of E. coli, synthesized and cloned into pET15b vector with a N-terminal His tag by Genscript, respectively. The plasmid was transferred to BL21-CodonPlus (DE3)-RIPIL Competent Cell (230280, Agilent Technologies) and the recombinant protein was induced expressed by 0.5 mM IPTG at 16° C. with shaking 200 rpm for 18 h. Induced cells were harvested by centrifugation and resuspended in cold lysis buffer (50 mM Tris-H—Cl pH 7.5, 150 mM NaCl, 25 mM imidazole pH 7.5, 0.01% IGEPAL, 5% Glycerol) in the presence of Pierce Protease Inhibitor tablets (PIA32963, Fisher Scientific) and 2 mM TCEP pH 7.5.
The cells were lysed by sonication, clarified by centrifugation, and the filtered supernatant loaded onto a 5 ml HisTrap HP affinity column (17524802, Cytiva) in AKTA system. The His-recombinant protein bound to column was washed using buffer A (50 mM Tris-HCl pH 7.5, 150 mM NaCl, 25 mM imidazole pH 7.5, 0.01% IGEPAL, 5% Glycerol) and eluted with buffer B (50 mM Tris-HCl pH 7.5, 150 mM NaCl, 250 mM imidazole pH 7.5, 0.01% IGEPAL, 5% Glycerol). The eluted fractions containing OTUB1 protein were concentrated and subjected to size exclusion chromatography using a 320 mL HiLoad 26/600 Superdex 200 pg column (28989336, Cytiva) under the buffer condition ([…] Tris-HCl pH 7.5, 150 mM NaCl, and 2 mM TCEP pH 7.5). The eluted fractions containing OTUB1 protein were concentrated, divided into aliquots and stored at −80° C. freezer for further usage.
Quality control of the OTUB1 proteins was performed by SDS-PAGE, Nanodrop and mass spectrometry.
Mass Spectrometry-Based Analysis of OTUB1-Covalent Ligand Adducts
To screen the covalent ligands, recombinant OTUB1 protein (10 μM) was respectively incubated with DMSO, EN523 or seven novel ligands (2500 μM) in reaction buffer (50 mM Tris-HCl pH 7.5, 150 mM NaCl, and 0.5 mM TCEP pH 7.5) for 1 h at room temperature.
Then, the total 500 μL reaction solution was exchanged and concentrated to 50 μL 50 mM ammonium bicarbonate with a 10 kDa MWCO centrifugal filter unit (UFC901024, Millipore) and diluted in MS buffer (30% ACN, 0.2% FA) to a final concentration of […]. Mass spectrometry detection was performed by an Agilent LC/MSD Time-Of-Flight (TOF) mass spectrometer (Agilent Technologies) equipped with an electrospray ion source. The data was analyzed by TOF Protein Confirmation Software. All experiments were performed in duplicate.

| Compound | % of OTUB1 modified [%] |
| --- | --- |
| CC(=O)N1CCC2(CC1)CC(C(=O)N1CC3CC(C1)N3C(=O)/C=C/CN(C)C)C2 [XS197-176, (E)-1-(3-(7-acetyl-7-azaspiro[3.5]nonane-2-carbonyl)-3,6-diazabicyclo[3.1.1]heptan-6-yl)-4-(dimethylamino)but-2-en-1-one] | 30 |
| CN(C)C/C=C/C(=O)N1C2CC1CN(C(=O)c1cc3ccccc3s1)C2 [XS190-46, (E)-1-(3-(benzo[b]thiophene-2-carbonyl)-3,6-diazabicyclo[3.1.1]heptan-6-yl)-4-(dimethylamino)but-2-en-1-one] | 90 |
| C=CC(=O)N1CCN(c2ncc(C)s2)C(=O)C1 [XS154-148, 4-acryloyl-1-(5-methylthiazol-2-yl)piperazin-2-one] | 39 |
| CN(C)CC#CC(=O)N1CC(C)(C(=O)Nc2cc3ccccc3s2)C1 [XS209-175, N-(benzo[b]thiophen-2-yl)-1-(4-(dimethylamino)but-2-ynoyl)-3-methylazetidine-3-carboxamide] | 90 |
| Cc1ccc(N2CC3CCC(C2=O)N3C(=O)/C=C/CN(C)C)[nH]1 (stereo not drawn) [XS197-14, (E)-8-(4-(dimethylamino)but-2-enoyl)-3-(5-methyl-1H-pyrrol-2-yl)-3,8-diazabicyclo[3.2.1]octan-2-one] | 85 |
| Cc1cnc(N2CC3CCC(C2=O)N3C(=O)/C=C/CN(C)C)s1 (stereo not drawn) [XS190-183, (E)-8-(4-(dimethylamino)but-2-enoyl)-3-(5-methylthiazol-2-yl)-3,8-diazabicyclo[3.2.1]octan-2-one] | 95 |
| Cc1ocnc1C(=O)N1CC2CC(C1)N2C(=O)/C=C/CN(C)C [XS190-137, (E)-4-(dimethylamino)-1-(3-(5-methyloxazole-4-carbonyl)-3,6-diazabicyclo[3.1.1]heptan-6-yl)but-2-en-1-one] | 20 |
| CC(=O)Nc1ccc2sc(C(=O)N3CC4CC(C3)N4C(=O)/C=C/CN(C)C)cc2c1 [XS190-59, (E)-N-(2-(6-(4-(dimethylamino)but-2-enoyl)-3,6-diazabicyclo[3.1.1]heptane-3-carbonyl)benzo[b]thiophen-5-yl)acetamide] | 92 |
| CN(C)C/C=C/C(=O)N1C2CC1CN(C(=O)c1ccc(C3CCN(C)CC3)s1)C2 [XS197-74, (E)-4-(dimethylamino)-1-(3-(5-(1-methylpiperidin-4-yl)thiophene-2-carbonyl)-3,6-diazabicyclo[3.1.1]heptan-6-yl)but-2-en-1-one] | 92 |
| Cc1cnc(C(=O)N2CC3CC(C2)N3C(=O)/C=C/CN(C)C)s1 [XS209-65, (E)-4-(dimethylamino)-1-(3-(5-methylthiazole-2-carbonyl)-3,6-diazabicyclo[3.1.1]heptan-6-yl)but-2-en-1-one] | 80 |
| CN(C)C/C=C/C(=O)N1CCN(c2c[nH]c3ccccc23)C(=O)C1 [XS185-43, (E)-4-(4-(dimethylamino)but-2-enoyl)-1-(1H-indol-3-yl)piperazin-2-one] | 58 |
| CN(C)C/C=C/C(=O)N1C2CCC1C(=O)N(c1cc3ccccc3s1)C2 (stereo not drawn) [XS190-38, (E)-3-(benzo[b]thiophen-2-yl)-8-(4-(dimethylamino)but-2-enoyl)-3,8-diazabicyclo[3.2.1]octan-2-one] | 100 |
| COCc1ccc(C(=O)N2CC3CC(C2)N3C(=O)/C=C/CN(C)C)s1 [XS190-138, (E)-4-(dimethylamino)-1-(3-(5-(methoxymethyl)thiophene-2-carbonyl)-3,6-diazabicyclo[3.1.1]heptan-6-yl)but-2-en-1-one] | 45 |
| Cc1ccc(NC(=O)C2(O)CN(C(=O)C#CCN(C)C)C2)s1 [XS209-99, 1-(4-(dimethylamino)but-2-ynoyl)-3-hydroxy-N-(5-methylthiophen-2-yl)azetidine-3-carboxamide] | 98 |
| CN(C)C/C=C/C(=O)N1CC2(CC(C(=O)Nc3cc4ccccc4s3)C2)C1 [XS185-91, (E)-N-(benzo[b]thiophen-2-yl)-2-(4-(dimethylamino)but-2-enoyl)-2-azaspiro[3.3]heptane-6-carboxamide] | 25 |
| Cc1ccc(C(=O)N2CCC3(CC2)CN(C(=O)/C=C/CN(C)C)C3)s1 [XS185-96, (E)-4-(dimethylamino)-1-(7-(5-methylthiophene-2-carbonyl)-2,7-diazaspiro[3.5]nonan-2-yl)but-2-en-1-one] | 10 |
| CCc1ccc(N2CCN(C(=O)/C=C/CN(C)C)CC2=O)s1 [XS175-63, (E)-4-(4-(dimethylamino)but-2-enoyl)-1-(5-ethylthiophen-2-yl)piperazin-2-one] | 75 |
| CC(C)c1ccc(C(=O)N2CC3CC(C2)N3C(=O)/C=C/CN(C)C)s1 [XS197-49, (E)-4-(dimethylamino)-1-(3-(5-isopropylthiophene-2-carbonyl)-3,6-diazabicyclo[3.1.1]heptan-6-yl)but-2-en-1-one] | 85 |
| CN(C)C/C=C/C(=O)N1CC2(CCN(c3cc4ccccc4s3)CC2)C1 [XS185-147, (E)-1-(7-(benzo[b]thiophen-2-yl)-2,7-diazaspiro[3.5]nonan-2-yl)-4-(dimethylamino)but-2-en-1-one] | 15 |
| Cc1ccc(NC(=O)C2CCN(C(=O)/C=C/CN(C)C)C2)s1 (stereo not drawn) [XS175-133, (E)-1-(4-(dimethylamino)but-2-enoyl)-N-(5-methylthiophen-2-yl)pyrrolidine-3-carboxamide] | 2 |
| Cc1ccc(N2CC3(CCN(C(=O)/C=C/CN(C)C)CC3)C2)s1 [XS185-109, (E)-4-(dimethylamino)-1-(2-(5-methylthiophen-2-yl)-2,7-diazaspiro[3.5]nonan-7-yl)but-2-en-1-one] | 1 |
| Cc1ccc(C(=O)N2CC3(CCN(C(=O)/C=C/CN(C)C)CC3)C2)s1 [XS185-66, (E)-4-(dimethylamino)-1-(2-(5-methylthiophene-2-carbonyl)-2,7-diazaspiro[3.5]nonan-7-yl)but-2-en-1-one] | 20 |
| CN(C)C/C=C/C(=O)N1C2CCC1C(=O)N(c1csc3ccccc13)C2 (stereo not drawn) [XS190-44, (E)-3-(benzo[b]thiophen-3-yl)-8-(4-(dimethylamino)but-2-enoyl)-3,8-diazabicyclo[3.2.1]octan-2-one] | 97 |
| C=CC(=O)N1CCN(c2cnc(C)s2)C(=O)C1 [XS154-184, 4-acryloyl-1-(2-methylthiazol-5-yl)piperazin-2-one] | <5 |
| Cc1ccc(NC(=O)C2(C)CN(C(=O)/C=C/CN(C)C)C2)s1 [XS209-21, (E)-1-(4-(dimethylamino)but-2-enoyl)-3-methyl-N-(5-methylthiophen-2-yl)azetidine-3-carboxamide] | 22 |
| Cc1csc(NC(=O)C2CCN(C(=O)/C=C/CN(C)C)CC2)c1 [XS175-173, (E)-1-(4-(dimethylamino)but-2-enoyl)-N-(4-methylthiophen-2-yl)piperidine-4-carboxamide] | 3 |
| CN(C)C/C=C/C(=O)N1C2CC1CN(C(=O)c1cc3c(s1)CCCC3)C2 [XS190-48, (E)-4-(dimethylamino)-1-(3-(4,5,6,7-tetrahydrobenzo[b]thiophene-2-carbonyl)-3,6-diazabicyclo[3.1.1]heptan-6-yl)but-2-en-1-one] | 90 |
